# Experimental data: US20240041976A1, “COMPOSITION AND USE” (priority 2020, published 2024)
# Like-named read-outs stand apart in the source and are kept apart here.
# Experiments:
# Type in all cases: cell-based, Staphylococcus aureus
# S. aureus Newman biofilm = experiment: Biofilm-oriented antimicrobial test (BOAT), MIC50 in biofilms; conditions: for MIC50: individual component
# Procedure: (§1) Synergistic interactions between antimicrobials were determined using the fractional inhibition concentration (FIC). The FIC values were calculated as follows: the sum of the FIC =FICa+FICb+FICc, where the FICa means MIC of A in combination/MIC of A alone, FICb means MIC of B in combination/MIC of B, and FICc means MIC of C in combination/MIC of C alone. Effects were considered as synergistic if FIC was ≤0.5 for two components mixture and ≤0.75 for three components mixture.
# (§2) Staphylococcus aureus strains were inoculated in 5 ml of TSB and incubated O/N at 37° C. Ten μl of the O/N cultures were then inoculated in 90 μl of TSB supplemented with 1% glucose and 1% NaCl (TSB-GN) in the appropriate wells of a 96-well microtiter plate (Sarstedt) to a final volume of 100 μl. The plates were then incubated at 37° C. for 24 h. After the incubation, the presence of the biofilm at the bottom of the wells was assessed visually.
# (§3) The BOAT assay was performed as described previously (Gronseth et al., 2017, Int. J. Pediatr. Otorhinolaryngol., Vol. 103, p 58-64) with some modifications. The serial dilutions of the antimicrobials were prepared in challenge plates as follows: 175 μl of TSB were transferred in each row of a 96-well microtiter plate, except for the first row, according to the number of microbial strains to treat. In the first row of the plate, the antimicrobials were diluted to their respective working concentrations in a final volume of 350 μl of TSB. From the first row, 175 μl of the antimicrobial dilutions were then transferred to the second row of the plate and further serially diluted to the bottom of the plate. The same procedure was followed to prepare the controls, except that instead of the antimicrobials an equivalent volume of the respective vehicles were used. The biofilms were allowed to form for 24 h and then washed twice with 100 μl of sterile saline buffer and a total of 150 μl of the antimicrobial and control dilutions were transferred from the challenge plate to the corresponding wells of the biofilm plate. The challenged biofilms were then incubated for an additional 24 h at 37° C. After the challenge period, the antimicrobial dilutions were removed and the biofilms were carefully washed three times with 150 μl of sterile saline buffer. A total of 100 μl of TSB supplemented with 0.025% of triphenyl-tetrazolium chloride (TTC, Sigma) were then added to each well of the plate and further incubated at 37° C. for 5h. The results were then assessed by monitoring the development (or not) of red formazan (red colour), denoting the retention of metabolic activity by bacterial cells (Moussa et al., 2013, J. Mycol., Vol. 2013; Perez et al., 2010, Lett. Appl. Microbiol., Vol. 51, p 331-337). The medium was then removed and 200 μl of an ethanol:acetone (70:30) mixture was added to the wells and incubated O/N in order to extract the red formazan. The amount of extracted dye, reflecting the degree of bacterial cell metabolic activity, was then quantified by spectrophotometric readings at 492 nm.
# S.a. 3255 biofilm = experiment: as above; conditions: for MIC50: individual component
# Procedure: as §1, §2, §3
# [1] = tested on: S. aureus ATTC 10832 biofilm; experiment: as above; conditions: for MIC50: individual component
# Procedure: as §1, §2, §3
# [2] = tested on: S. aureus USA 300 biofilm; experiment: as above
# Procedure: as §1, §2, §3
# [3] = tested on: S. aureus ATTC 29213 biofilm; experiment: as above; conditions: for MIC50: individual component
# Procedure: as §1, §2, §3
# [4] = tested on: S. aureus ATTC 33591 biofilm; experiment: as above; conditions: for MIC50 of the component in combination / MIC50: ATTC 33591, biofilm; for MIC50: individual component
# Procedure: as §1, §2, §3
# S. aureus LMG3322 = experiment: AAMP assay (MIC), single components and formulation mixture; conditions: for MIC: Staphylococcus aureus, LMG3322, 24 h, read-out: MIC, single component
# Procedure: (§4) Antimicrobial activity was measured using the AAMP assay (Wiegand et al., 2008, Nat. Protoc., Vol. 3(2), p 163-175).
# (§5) Three-component synergy was assessed by mixing the three components (100 μg of PenG, 50 μg of GarKS and 2.5 μg of MP1) into one well of a microtiter plate, compared with activity of individual antimicrobials on the same plate. The fractional inhibition concentration (FIC) which was used to define synergy was calculated as set forth in Example 1.
# S. aureus LMG3266 = experiment: as above; conditions: for MIC: Staphylococcus aureus, LMG3266, 24 h, read-out: MIC, single component
# Procedure: as §4, §5
# S. aureus LMG3255 = experiment: as above; conditions: for MIC: Staphylococcus aureus, LMG3255, 24 h, read-out: MIC, single component
# Procedure: as §4, §5
# S. aureus LMG3258 = experiment: as above; conditions: for MIC: Staphylococcus aureus, LMG3258, 24 h, read-out: MIC, single component
# Procedure: as §4, §5
# S. aureus LMG3328 = experiment: as above; conditions: for MIC: Staphylococcus aureus, LMG3328, 24 h, read-out: MIC, single component
# Procedure: as §4, §5
# S. aureus LMG3314 = experiment: as above; conditions: for MIC: Staphylococcus aureus, LMG3314, 24 h, read-out: MIC, single component
# Procedure: as §4, §5
# S. aureus LMG3242 = experiment: as above; conditions: for MIC: Staphylococcus aureus, LMG3242, 24 h, read-out: MIC, single component
# Procedure: as §4, §5
# S. aureus LMG3264 = experiment: as above; conditions: for MIC: Staphylococcus aureus, LMG3264, 24 h, read-out: MIC, single component
# Procedure: as §4, §5
# [5] = Staphylococcus aureus, read-out: MIC50
# [6] = garvicin KS + micrococcin P1 + penicillin G
# [7] = Staphylococcus aureus, ATTC10832BIOFILM, read-out: MIC50
# [8] = Staphylococcus aureus, USA300, individual component, read-out: MIC50
# [9] = Staphylococcus aureus, ATTC29213BIOFILM, read-out: MIC50
# [10] = Staphylococcus aureus, ATTC33591BIOFILM, read-out: MIC50
molecule,measurement,setting,value
"C/C=C(\NC(=O)c1csc(-c2csc(-c3ccc4c(n3)-c3csc(n3)[C@H]([C@@H](C)O)NC(=O)c3csc(n3)[C@H](C(C)C)NC(=O)c3csc(n3)/C(=C/C)NC(=O)[C@H]([C@@H](C)O)NC(=O)c3csc-4n3)n2)n1)C(=O)NC[C@@H](C)O [MP1, micrococcin P1]",MIC50,S. aureus Newman biofilm; [5],> 100 µg/mL
same,MIC50 of the component in combination,S. aureus Newman biofilm; garvicin KS + micrococcin P1,25 µg/mL
same,MIC50 of the component in combination,S. aureus Newman biofilm; [6],25 µg/mL
same,MIC50,S.a. 3255 biofilm; [5],> 100 µg/mL
same,MIC50 of the component in combination,S.a. 3255 biofilm; garvicin KS + micrococcin P1,2.5 × 10^−2. mg/ml
same,MIC50 of the component in combination,S.a. 3255 biofilm; [6],0.0063 mg/mL
same,MIC50,[1]; [7],> 100 µg/mL
same,MIC50 of the component in combination,[1]; garvicin KS + micrococcin P1,25 µg/mL
same,MIC50 of the component in combination,[1]; [6],3.1 µg/mL
same,MIC50,[2]; [8],> 100 µg/mL
same,MIC50 of the component in combination,[2]; garvicin KS + micrococcin P1,100 µg/mL
same,MIC50 of the component in combination,[2]; [6],100 µg/mL
same,MIC50,[3]; [9],> 100 µg/mL
same,MIC50 of the component in combination,[3]; garvicin KS + micrococcin P1,25 µg/mL
same,MIC50 of the component in combination,[3]; [6],6.3 µg/mL
same,MIC50 of the component in combination,[4]; garvicin KS + micrococcin P1,>100 µg/mL
same,MIC50 of the component in combination,[4]; [6],100 µg/mL
same,MIC50,[4]; [10],> 100 µg/mL
same,MIC,S. aureus LMG3322,> 1.8 µg/mL
same,MIC,S. aureus LMG3266,> 1.8 µg/mL
same,MIC,S. aureus LMG3255,> 1.8 µg/mL
same,MIC,S. aureus LMG3258,1.8 µg/mL
same,MIC,S. aureus LMG3328,0.9 µg/mL
same,MIC,S. aureus LMG3314,0.4 µg/mL
same,MIC,S. aureus LMG3242,0.4 µg/mL
same,MIC,S. aureus LMG3264,> 1.8 µg/mL
CC1(C)S[C@@H]2[C@H](NC(=O)Cc3ccccc3)C(=O)N2[C@H]1C(=O)O [Penicillin G],MIC50,S. aureus Newman biofilm; [5],10000 µg/mL
same,MIC50 of the component in combination,S. aureus Newman biofilm; [6],2500 µg/mL
same,MIC50 of the component in combination,S. aureus Newman biofilm; garvicin KS + penicillin G,1300 µg/mL
same,MIC50,S.a. 3255 biofilm; [5],10000 µg/mL
same,MIC50 of the component in combination,S.a. 3255 biofilm; [6],0.63 mg/mL
same,MIC50 of the component in combination,S.a. 3255 biofilm; garvicin KS + penicillin G,0.63 mg/mL
same,MIC50,[1]; [7],10000 µg/mL
same,MIC50 of the component in combination,[1]; [6],310 µg/mL
same,MIC50 of the component in combination,[1]; garvicin KS + penicillin G,630 µg/mL
same,MIC50,[2]; [8],> 10000 µg/mL
same,MIC50 of the component in combination,[2]; [6],10000 µg/mL
same,MIC50 of the component in combination,[2]; garvicin KS + penicillin G,>10000 µg/mL
same,MIC50,[3]; [9],10000 µg/mL
same,MIC50 of the component in combination,[3]; [6],630 µg/mL
same,MIC50 of the component in combination,[3]; garvicin KS + penicillin G,2500 µg/mL
same,MIC50 of the component in combination,[4]; [6],10000 µg/mL
same,MIC50 of the component in combination,[4]; garvicin KS + penicillin G,>10000 µg/mL
same,MIC50,[4]; [10],> 10000 µg/mL
same,MIC,S. aureus LMG3322,< 0.24 µg/mL
same,MIC,S. aureus LMG3266,64 µg/mL
same,MIC,S. aureus LMG3255,< 0.24 µg/mL
same,MIC,S. aureus LMG3258,64 µg/mL
same,MIC,S. aureus LMG3328,< 0.24 µg/mL
same,MIC,S. aureus LMG3314,< 0.24 µg/mL
same,MIC,S. aureus LMG3242,0.24 µg/mL
same,MIC,S. aureus LMG3264,4 µg/mL
"Garvicin KS: three-peptide leaderless bacteriocin (GarA, GarB, GarC; SEQ ID NO:6-8), peptides synthesized (peptide, listed as Lactococcus garvieae) chain 1: MGAIIKAGAKIVGKGVLGGGASWLGWNVGEKIWK chain 2: MGAIIKAGAKIIGKGLLGGAAGGATYGGLKKIFG chain 3: MGAIIKAGAKIVGKGALTGGGVWLAEKLFGGK",MIC50 of the component in combination,S. aureus Newman biofilm; garvicin KS + micrococcin P1,1250 µg/mL
same,MIC50 of the component in combination,S. aureus Newman biofilm; [6],1250 µg/mL
same,MIC50 of the component in combination,S. aureus Newman biofilm; garvicin KS + penicillin G,630 µg/mL
same,MIC50,S. aureus Newman biofilm,1250 µg/mL
same,MIC50 of the component in combination,S.a. 3255 biofilm; garvicin KS + micrococcin P1,3.1 × 10^−1. mg/ml
same,MIC50 of the component in combination,S.a. 3255 biofilm; [6],0.31 mg/mL
same,MIC50 of the component in combination,S.a. 3255 biofilm; garvicin KS + penicillin G,0.31 mg/mL
same,MIC50,S.a. 3255 biofilm,1250 µg/mL
same,MIC50 of the component in combination,[1]; garvicin KS + micrococcin P1,1250 µg/mL
same,MIC50 of the component in combination,[1]; [6],160 µg/mL
same,MIC50 of the component in combination,[1]; garvicin KS + penicillin G,310 µg/mL
same,MIC50,[1],2500 µg/mL
same,MIC50 of the component in combination,[2]; garvicin KS + micrococcin P1,5000 µg/mL
same,MIC50 of the component in combination,[2]; [6],5000 µg/mL
same,MIC50 of the component in combination,[2]; garvicin KS + penicillin G,>5000 µg/mL
same,MIC50,[2]; individual component,2500 µg/mL
same,MIC50 of the component in combination,[3]; garvicin KS + micrococcin P1,1250 µg/mL
same,MIC50 of the component in combination,[3]; [6],310 µg/mL
same,MIC50 of the component in combination,[3]; garvicin KS + penicillin G,1250 µg/mL
same,MIC50,[3],1250 µg/mL
same,MIC increase compared to the planktonic state,[4]; ATCC 33591 biofilm,over 100 fold
same,MIC50 of the component in combination,[4]; garvicin KS + micrococcin P1,>5000 µg/mL
same,MIC50 of the component in combination,[4]; [6],5000 µg/mL
same,MIC50 of the component in combination,[4]; garvicin KS + penicillin G,>5000 µg/mL
same,MIC50,[4],>5000 µg/mL
same,"MIC, single component",S. aureus LMG3322; LMG3322,16 µg/mL
same,"MIC, single component",S. aureus LMG3266; LMG3266,32 µg/mL
same,"MIC, single component",S. aureus LMG3255; LMG3255,32 µg/mL
same,"MIC, single component",S. aureus LMG3258; LMG3258,32 µg/mL
same,"MIC, single component",S. aureus LMG3328; LMG3328,32 µg/mL
same,"MIC, single component",S. aureus LMG3314; LMG3314,32 µg/mL
same,"MIC, single component",S. aureus LMG3242; LMG3242,32 µg/mL
same,"MIC, single component",S. aureus LMG3264; LMG3264,32 µg/mL
